From patent US20170334877A1, “REVAPRAZAN HYDROCHLORIDE POLYMORPHS AND PREPARATION METHOD THEREFOR” (JIANGSU TASLY DIYI PHARMACEUTICAL CO., LTD., priority 2014, published 2017)
Where a name gives a salt, the structure may show the parent alone.

How the values were obtained:
Type in all cases: physicochemical
[1] = High temperature test (60° C. incubator); conditions: for Appearance color / Loss on drying (%) / Purity (%) / Relevant substances: 60° C., hydrochloride; for Stability (conclusion in words): high temperature, no obvious changes in appearance color, loss on drying, purity, relevant substances
Procedure: Revaprazan hydrochloride crystalline form I is placed in a 60° C. incubator, and is sampled on the 5th day and 10th day for detection, and the results are shown in Table 2. Revaprazan hydrochloride crystalline form II is placed in a 60° C. incubator, and is sampled on the 5th day and 10th day for detection, and the results are shown in Table 6. Revaprazan hydrochloride polymorph III is placed in an incubator of 60° C., and is sampled on the 5th day and the 10th day for detection. Revaprazan hydrochloride crystalline form IV is placed in an incubator of 60° C., and is sampled on the 5th day and the 10th day for detection. Revaprazan hydrochloride crystal form 4 is placed in an incubator of 60° C.; and is sampled on the 5th day and the 10th day for detection, and the results are shown in Table 23.

[2] = High humidity test (25° C., relative humidity 75±5%); conditions: for Appearance color / Purity (%) / Relevant substances / Weight gain upon moisture absorption (%): 25° C., RH 75±5%; for Weight gain upon moisture absorption (in words): high humidity condition; for Stability (conclusion in words): high humidity, no obvious changes in appearance color, purity, relevant substances
Procedure: Revaprazan hydrochloride crystalline form I is placed in an incubator of 25° C. (relative humidity of 75±5%), and is sampled on the 5th day and 10th day for detection. Revaprazan hydrochloride crystalline form II is placed in an incubator of 25° C. (relative humidity of 75±5%), and is sampled on the 5th day and 10th day for detection. Revaprazan hydrochloride polymorph III is placed in an incubator of 25° C. (relative humidity of 75±5%), and is sampled on the 5th day and the 10th day for detection. Revaprazan hydrochloride crystalline form IV is placed in an incubator of 25° C. Revaprazan hydrochloride crystal form 4 is placed in an incubator of 25° C. (the relative humidity is 75±5%), and is sampled on the 5th day and the 10th day for detection.

[3] = Accelerated test (40±2° C., relative humidity 75±5%, 6 months, sealed polyethylene film bag); conditions: for Appearance color / Purity (%) / Relevant substances: 40±2° C., RH 75±5%; for Purity (%) / Relevant substances: hydrochloride; for Stability (conclusion in words): accelerated test, no obvious changes in appearance color, purity, relevant substances
Procedure: Revaprazan hydrochloride crystalline form I is sealed in a polyethylene film bag, is placed for 6 months under the conditions that the temperature is 40±2° C. and the relative humidity is 75±5%, and is respectively sampled at the end of the 1st Month, the 2nd Month, the 3rd Month and the 6^thMonth for detection; and the results are shown in Table 4. Revaprazan hydrochloride crystalline form II is sealed in a polyethylene film bag and is placed for 6 months under the conditions that the temperature is 40±2° C. and the relative humidity is 75±5%, and is respectively sampled at the end of the 1st Month, the 2nd Month, the 3rd Month and the 6th Month for detection; and the results are shown in Table 8. Revaprazan hydrochloride crystalline form III is sealed in a polyethylene film bag, is placed for 6 months under the conditions that the temperature is 40±2° C. and the relative humidity is 75±5%, and is sampled at the end of the 1st Month, the 2nd Month, the 3rd Month and the 6th Month for detection. Revaprazan hydrochloride crystalline form IV is sealed in a polyethylene film bag, is placed for 6 months under the conditions that the temperature is 40±2° C. and the relative humidity is 75±5%, and is sampled at the end of the 1st Month, the 2nd Month, the 3rd Month and the 6th Month for detection. Revaprazan hydrochloride crystalline form V is sealed in a polyethylene film bag and is placed for 6 months under the condition that the temperature is 40±2° C. and the relative humidity is 75±5%, and is sampled at the end of the 1st month, the 2nd month, the 3rd month and the 6th month for detection, and the results are shown in Table 20.

[4] = Light illumination test (intense light, 4500±500 Lx); conditions: for Stability (conclusion in words): intense light illumination, no obvious changes in appearance color, loss on drying, purity, relevant substances; for Appearance color / Loss on drying (%) / Purity (%) / Relevant substances: light 4500±500 Lx; for Loss on drying (%) / Purity (%) / Relevant substances: hydrochloride
From the text: Revaprazan hydrochloride crystalline form I is irradiated under such a condition that the light intensity is 4500±500 Lx, and is sampled on the 5th day and 10th day for detection, and the results are shown in Table 1. Revaprazan hydrochloride crystalline form II is irradiated under the condition that the light intensity is 4500±500Lx, and is sampled on the 5th day and 10th day for detection. Revaprazan hydrochloride polymorph III is irradiated under such a condition that the light intensity is 4500±500Lx, and is sampled on the 5th day and 10th day for detection. Revaprazan hydrochloride […] is irradiated under such a condition that the light intensity is 4500±500Lx, and is sampled on the 5th day and the 10th day for detection. Revaprazan hydrochloride crystalline form V is irradiated under the light intensity condition of 4500±500Lx; and is sampled on the 5th day and 10th day for detection.

[5] = 5th day, listed as revaprazan hydrochloride polymorph III
[6] = 10th day, listed as revaprazan hydrochloride polymorph III
[7] = Day 0, listed as revaprazan hydrochloride polymorph III

## Cc1nc(Nc2ccc(F)cc2)nc(N2CCc3ccccc3C2C)c1C (single isomer, unassigned) [revaprazan hydrochloride crystalline form III]
[1]; [5]
  Appearance color: White powder
  Loss on drying (%): 0.26%
  Purity (%): 99.94%
  Relevant substances: Undetected
[1]; [6]
  Appearance color: White powder
  Loss on drying (%): 0.26%
  Purity (%): 99.92%
  Relevant substances: Undetected
[1]; [7]
  Appearance color: White powder
  Loss on drying (%): 0.22%
  Purity (%): 99.95%
  Relevant substances: Undetected
[1]
  Stability (conclusion in words): stable
[2]; 5th day
  Appearance color: White powder
[2]; 5th day, hydrochloride
  Purity (%): 99.92%
  Relevant substances: Undetected
  Weight gain upon moisture absorption (%): 0.47%
[2]; 10th day
  Appearance color: White powder
[2]; 10th day, hydrochloride
  Purity (%): 99.94%
  Relevant substances: Undetected
  Weight gain upon moisture absorption (%): 0.59%
[2]; Day 0
  Appearance color: White powder
  Weight gain upon moisture absorption (%): 0%
[2]; Day 0, hydrochloride
  Purity (%): 99.95%
  Relevant substances: Undetected
[2]
  Weight gain upon moisture absorption (in words): slight weight gain
  Stability (conclusion in words): stable
[3]; 1st month
  Appearance color: White powder
  Purity (%): 99.92%
  Relevant substances: Undetected
[3]; 2nd month
  Appearance color: White powder
  Purity (%): 99.91%
  Relevant substances: Undetected
[3]; 3rd month
  Appearance color: White powder
  Purity (%): 99.93%
  Relevant substances: Undetected
[3]; 6th month
  Appearance color: White powder
  Purity (%): 99.95%
  Relevant substances: Undetected
[3]; Month 0
  Appearance color: White powder
  Purity (%): 99.95%
  Relevant substances: Undetected
[3]
  Stability (conclusion in words): stable
[4]
  Stability (conclusion in words): stable
[4]; 5th day
  Appearance color: White powder
[4]; [5]
  Loss on drying (%): 0.25%
  Purity (%): 99.92%
  Relevant substances: Undetected
[4]; 10th day
  Appearance color: White powder
[4]; [6]
  Loss on drying (%): 0.29%
  Purity (%): 99.95%
  Relevant substances: Undetected
[4]; Day 0
  Appearance color: White powder
[4]; [7]
  Loss on drying (%): 0.28%
  Purity (%): 99.95%
  Relevant substances: Undetected

## Cc1nc(Nc2ccc(F)cc2)nc(N2CCc3ccccc3C2C)c1C (single isomer, unassigned) [revaprazan hydrochloride crystalline form IV]
[1]; 5th day
  Appearance color: White powder
  Loss on drying (%): 0.27%
  Purity (%): 99.91%
  Relevant substances: Undetected
[1]; 10th day
  Appearance color: White powder
  Loss on drying (%): 0.27%
  Purity (%): 99.92%
  Relevant substances: Undetected
[1]; Day 0
  Appearance color: White powder
  Loss on drying (%): 0.25%
  Purity (%): 99.93%
  Relevant substances: Undetected
[1]
  Stability (conclusion in words): stable
[2]; 5th day
  Appearance color: White powder
[2]; 5th day, hydrochloride
  Purity (%): 99.96%
  Weight gain upon moisture absorption (%): 0.44%
[2]; 10th day
  Appearance color: White powder
[2]; 10th day, hydrochloride
  Purity (%): 99.93%
  Weight gain upon moisture absorption (%): 0.62%
[2]; Day 0
  Appearance color: White powder
  Weight gain upon moisture absorption (%): 0%
[2]; Day 0, hydrochloride
  Purity (%): 99.93%
[2]
  Weight gain upon moisture absorption (in words): slight weight gain
  Stability (conclusion in words): stable
[3]; 1st month
  Appearance color: White powder
  Purity (%): 99.91%
  Relevant substances: Undetected
[3]; 2nd month
  Appearance color: White powder
  Purity (%): 99.90%
  Relevant substances: Undetected
[3]; 3rd month
  Appearance color: White powder
  Purity (%): 99.95%
  Relevant substances: Undetected
[3]; 6th month
  Appearance color: White powder
  Purity (%): 99.94%
  Relevant substances: Undetected
[3]; Month 0
  Appearance color: White powder
  Purity (%): 99.93%
  Relevant substances: Undetected
[3]
  Stability (conclusion in words): stable
[4]
  Stability (conclusion in words): stable
[4]; 5th day
  Appearance color: White powder
  Loss on drying (%): 0.29%
  Purity (%): 99.95%
  Relevant substances: Undetected
[4]; 10th day
  Appearance color: White powder
  Loss on drying (%): 0.31%
  Purity (%): 99.92%
  Relevant substances: Undetected
[4]; Day 0
  Appearance color: White powder
  Loss on drying (%): 0.27%
  Purity (%): 99.93%
  Relevant substances: Undetected
